The nature of assay [1]: Percent reduction of thrombin receptor activating peptide (12 uM) induced platelet aggregation was determined at 0.5 mM concentration. The format is functional, Homo sapiens.
The nature of assay [2]: Percent reduction of collagen (5 ug/mL) induced platelet aggregation was determined at 0.5 mM concentration. The format is functional, Homo sapiens.
Assay [3] in a line: Percent reduction of ADP (4 uM) induced platelet aggregation was determined at 0.5 mM concentration. The format is functional, Homo sapiens.
The nature of assay [4]: Percent reduction of collagen (1 ug/mL) induced platelet aggregation was determined at 0.5 mM concentration. The format is functional, Homo sapiens.
Assay [5] is described as follows: Percent reduction of ADP (4 uM) induced platelet aggregation was determined at 0.25 mM concentration. The format is functional, Homo sapiens.
Assay [6] can be described thus: Percent reduction of collagen (5 ug/mL) induced platelet aggregation was determined at 0.25 mM concentration. The format is functional, Homo sapiens.
The subject of assay [7] is Rattus norvegicus. Put plainly: Percent reduction in infarct volume after treatment at 40.0 mg/kg dose. The format is functional.
The test system of assay [8] is Rattus norvegicus. Put plainly: Percent reduction in infarct volume after treatment at 10.0 mg/kg dose. The format is functional.
Assay [9] deals with Rattus norvegicus. Put plainly: Percent reduction in infarct volume after treatment at 20.0 mg/kg dose. The format is functional.
Assay [10] concerns Rattus norvegicus. Put plainly: Percent reduction in infarct size after bolus injection at 0.07 mol/kg dose. The format is functional.
Assay [11] has as its system Rattus norvegicus. Kind of assay: Percent reduction in infarct volume after treatment at 0.0 mg/kg dose. The format is functional.
Assay [12] can be described thus: Percent reduction of thrombin receptor activating peptide (12 uM) induced platelet aggregation was determined at 0.25 mM concentration. The format is functional, Homo sapiens.
Assay [13] is described as follows: Percent reduction of collagen (1 ug/mL) induced platelet aggregation was determined at 0.25 mM concentration. The format is functional, Homo sapiens.
Assay [14] relates to Rattus norvegicus. Put plainly: Percent reduction in infarct size after bolus injection at 0.1 mol/kg dose. The format is functional.

“And” between values parts separate entries of the source, which are not always exact repeats. Equal values may be shown once.

As to `Cc1ncc(CNC(=O)Nc2ccc(F)cc2)c(CO)c1O`, the Reduction was 0% in assay [1], 1% in [2], 0% in assay [3] and 0% in assay [4].
For the compound `Cc1ncc(C/N=C(\S)Nc2ccc(F)cc2)c(CO)c1O`, the Reduction in assay [1] worked out at 6%; in assay [2] it was 4%; in [3], 18%; in assay [4], 23%.
In the same order, the values of `Cc1ncc(CNc2ccc(C(=N)N)cc2)c(CO)c1O` are 88%, 24%, 79% and 10%.
Turning to `Cc1ncc(Cn2cnnn2)c(CO)c1O`, the Reduction was 7% in assay [1], 0% in assay [2], 4% in [3] and 6% in assay [4].
`Cc1ncc(Cn2nnc(N)n2)c(CO)c1O`: the Reduction in assay [1] was determined as 2%; in assay [2], 0%; in assay [3] it was 0%; in assay [4] it was 1%.
Regarding `Cc1ncc(CNc2ccc(-c3ccc(C(=N)N)cc3)cc2)c(CO)c1O`, the Reduction was 63% in assay [5]; 1% in assay [6]; 30% in assay [2]; 2.9% in the assay with Rattus norvegicus [7]; 30.5% in the assay on Rattus norvegicus [8]; 26.5% in the assay on Rattus norvegicus [9]. Besides, the Reduction in assay [3] is 82% and 66%; in assay [4], 93%; in the assay on Rattus norvegicus [10] it was 30%; in the assay with Rattus norvegicus [11], 40%; in assay [12] it was 93%; in assay [13], 41%.
As to `Cc1ncc(Cn2ccnc2C)c(CO)c1O`, the Reduction in assay [1] is 3%; in assay [2], 1%; in assay [3], 1%; in assay [4] it was 0%.
On to `Cc1ncc(COP(=O)(O)O)c(C=O)c1O` [PYRIDOXAL PHOSPHATE ANHYDROUS], for which the Reduction in the assay with Rattus norvegicus [14] is recorded as 31%; in assay [1], 0%; in [2], 0%; in assay [3], 0%; in assay [4], 0%.
On to `Cc1ncc(CO)c(CO)c1O` [PYRIDOXINE], for which the Reduction worked out at 0% in [1], 4% in assay [2], 0% in assay [3] and 4% in assay [4].

For the origin of these results see ChEMBL document CHEMBL1137850, “Pyridoxine as a template for the design of antiplatelet agents” (2004).
